Laboratory results as given in patent US9839708B2, “Method for treating used absorbent article” (Unicharm Corporation, priority 2012, dated 2017).

Tests used:
Staphylococcus aureus = assay: Evaluation of bactericidal function (MIC / minimum bactericidal concentration); assay type: cell-based; set-up: key: −: exhibited effects of bactericidal action; +: with the exception of the results of Comparative Examples 1 and 2; details: at the concentration used in the example; absence of growth 24 hours later
Procedure: (§1) Minimum inhibitory concentration (MIC) of the acidic electrolyzed water was measured based on the standard test method of the Japanese Society of Chemotherapy followed by confirming the absence of growth 24 hours later to evaluate the minimum bactericidal concentration and determine if bactericidal effects are present at the concentration used in the example. Minimum inhibitory concentrations (MIC) of the alkaline electrolyzed water and acidic electrolyzed water were respectively measured based on the standard test method of the Japanese Society of Chemotherapy followed by confirming the absence of growth 24 hours later to evaluate the minimum bactericidal concentration and determine if bactericidal effects are present at the concentration used in Example 2-2. Minimum inhibitory concentrations (MIC) of the acidic electrolyzed water and alkaline electrolyzed water were respectively measured based on the standard test method of the Japanese Society of Chemotherapy followed by confirming the absence of growth 24 hours later to evaluate the minimum bactericidal concentration and determine if bactericidal effects are present at the concentration used in Example 3-2. Minimum inhibitory concentration (MIC) of the tap water was measured based on the standard test method of the Japanese Society of Chemotherapy followed by confirming the absence of growth 24 hours later to evaluate the minimum bactericidal concentration and determine if bactericidal effects are present at the concentration used in the example. Minimum inhibitory concentrations (MIC) of the alkaline electrolyzed water was measured based on the standard test method of the Japanese Society of Chemotherapy followed by confirming the absence of growth 24 hours later to evaluate the minimum bactericidal concentration and determine if bactericidal effects are present at the concentration used in Comparative Example 2-2. Minimum inhibitory concentration (MIC) of the 250 ppm sodium hypochlorite was measured based on the standard test method of the Japanese Society of Chemotherapy followed by confirming the absence of growth 24 hours later to evaluate the minimum bactericidal concentration and determine if bactericidal effects are present at the concentration used in Comparative Example 3-2. Minimum inhibitory concentration (MIC) of the 500 ppm sodium hypochlorite was measured based on the standard test method of the Japanese Society of Chemotherapy followed by confirming the absence of growth 24 hours later to evaluate the minimum bactericidal concentration and determine if bactericidal effects are present at the concentration used in Comparative Example 4-2. Minimum inhibitory concentration (MIC) of the 1000 ppm sodium hypochlorite was measured based on the standard test method of the Japanese Society of Chemotherapy followed by confirming the absence of growth 24 hours later to evaluate the minimum bactericidal concentration and determine if bactericidal effects are present at the concentration used in Comparative Example 4-2.

Escherichia coli = assay: as above; assay type: cell-based; set-up: key: −: exhibited effects of bactericidal action; +: with the exception of the results of Comparative Examples 1 and 2; details: at the concentration used in the example; absence of growth 24 hours later
Procedure: as §1

[1] = Residual chlorine concentration of recycled pulp (JIS K 0102 33.2); assay type: physicochemical; details: 5.00 g eluted into 100 ml, criterion Less than 1 ppm
Procedure: (§2) Eight commercially available disposable diapers (Moony M Size, Unicharm Corp.) that had adsorbed 200 ml of physiological saline were placed in a twin tub compact washing machine (Harebare AST-01, Alumis Co., Ltd.). 80 g of CaO (Wako Pure Chemical Industries, Ltd.) were placed in the washing tub followed by the addition of 6.5 L of acidic electrolyzed water (pH 3, generated with the ESS-ZERO Electrolyzed Water Sanitation System manufactured by Tech Corp.). After washing for 15 minutes, the liquid inside the washing tub was discharged followed by newly adding 6.5 L of acidic electrolyzed water (pH 3, formed with the ESS-ZERO Electrolyzed Water Sanitation System manufactured by Tech Corp.). After washing for 15 minutes, only the pulp that floated in the liquid in the washing tub was skimmed off followed by placing in a mesh pouch (measuring 25 cm on a side, N-No. 250HD, NBC Meshtec Inc.) and dehydrating for 5 minutes in the spin tub (dehydrator). The recycled pulp was rinsed for 15 minutes with running water (tap water) while still in the mesh pouch followed by again dehydrating for 5 minutes in the spin tub (dehydrator). The pulp was then dried for 24 hours with a hot air dryer at 105° C. Recycled pulp was obtained according to the aforementioned method.
5.00 g of pulp dried in the same manner as described above were eluted into 100 ml of physiological saline followed by measurement of the chlorine concentration thereof (JIS K 0102 33.2).
(§3) Eight commercially available disposable diapers (Moony M Size, Unicharm Corp.) that had adsorbed 200 ml of physiological saline were placed in a twin tub compact washing machine (Harebare AST-01, Alumis Co., Ltd.). 80 g of CaO (Wako Pure Chemical Industries, Ltd.) were placed in the washing tub followed by the addition of 6.5 L of alkaline electrolyzed water (pH 12, generated with the ESS-ZERO Electrolyzed Water Sanitation System manufactured by Tech Corp.). […]

[2] = Evaluation of pH of recycled pulp; assay type: physicochemical; details: 1.00 g dried pulp in 10 ml physiological saline; criterion pH 3.1-9.8
Procedure: as §2
1.00 g of the dried pulp was weighed out into a beaker followed by the addition of 10 ml of physiological saline. After gently stirring with a glass rod, the pulp was allowed to stand undisturbed for 10 minutes followed by measurement of the liquid inside the beaker with a pH meter (AS-212, As One Corp.).
as §3

Residual Chlorine ppm [1] [ppm] | pH of Recycled Pulp [2] | SMILES | Bactericidal Effect S. aureus (Staphylococcus aureus) | Bactericidal Effect E. coli (Escherichia coli)
1 | 12.3 | OCl [compound 3, sodium hypochlorite] | − | −
1 | 12.2 | [Na+].[O-]Cl [compound 4, sodium hypochlorite] | − | −
1 | 12.0 | OCl [compound 5, sodium hypochlorite] | − | −
